Measurements taken from patent US12318448B2, “Use of TLR agonist and anti-CD47 agent to enhance phagocytosis of cancer cells” (The Board of Trustees of the Leland Stanford Junior …, priority 2015, dated 2025).

B1: B6H12: anti-CD47 antibody (B6H12, BD Biosciences) (antibody, V domains shown)
VH: EVQLVESGGDLVKPGGSLKLSCAASGFTFSGYGMSWVRQTPDKRLEWVATITSGGTYTYYPDSVKGRFTISRDNAKNTLYLQIDSLKSEDTAIYFCARSLAGNAMDYWGQGTSVTVSS
VL: DIVMTQSPATLSVTPGDRVSLSCRASQTISDYLHWYQQKSHESPRLLIKFASQSISGIPSRFSGSGSGSDFTLSINSVEPEDVGVYYCQNGHGFPRTFGGGTKLEIK
B2: Hu5F9-G4: humanized anti-CD47 antibody provided by the CD47 disease team at Stanford University (antibody, chains of the INN, looked up, V domains shown)
VH: QVQLVQSGAEVKKPGASVKVSCKASGYTFTNYNMHWVRQAPGQRLEWMGTIYPGNDDTSYNQKFKDRVTITADTSASTAYMELSSLRSEDTAVYYCARGGYRAMDYWGQGTLVTVSS
VL: DIVMTQSPLSLPVTPGEPASISCRSSQSIVYSNGNTYLGWYLQKPGQSPQLLIYKVSNRFSGVPDRFSGSGSGTDFTLKISRVEAEDVGVYYCFQGSHVPYTFGQGTKLEIK

What was measured:
[1] = system: SW620 cells; assay: FACS-based phagocytosis assay, mouse BMDMs with SW620 target cells; type: cell-based, human; settings: for phagocytosis of tumor cells after treatment of macrophages with TLR agonist: SW620 (PBS-treated, Hu5F9-G4-treated or CD47KO), γc-/- or NSG mice, FIG. 6A-6B
Experimental: We performed phagocytosis assays by co-culturing mouse bone marrow-derived macrophages (BMDMs) and target human cancer cells to examine the efficacy of PrCR under different conditions. To induce phagocytosis, we blocked CD47 on a human colon cancer cell line (SW620) by either treating tumor cells with CD47 blocking antibodies or directly knocking it out.
(§1) Phagocytosis assay. FACS-based phagocytosis assays were performed to evaluate phagocytic abilities of macrophages. Macrophages were harvested after 6-8 days of differentiation and divided into FACS tubes or low-attachment 96-well plates, with 1-5×10^4 cells per well/tube. Target cells were added and mixed with macrophages, and incubated at 37° C. for 2 hrs with indicated conditions (antibody/drug treatment). For CD47 blockade, anti-CD47 (B6H12, BD Biosciences) or humanized anti-CD47 (Hu5F9-G4; provided by the CD47 disease team at Stanford University) antibodies were used. Cells were then incubated with PE cy7-conjugated anti-mouse F4/80 antibody to stain macrophages. After incubation, cells were washed with FACS buffer and resuspended with FACS buffer containing sytox blue to distinguish dead cells. Phagocytic index was examined by FACS analyses, and macrophages that phagocytosed target cells were F4/80+ and GFP+. Phagocytic index was calculated with the number of F4/80+GFP+ cells/divided by the number of F4/80+ cells. In each experiment, phagocytic indexes were normalized to the maximal indexes.
Alternatively, macrophages and target cells were mixed and cocultured in 24 well plates for 16-24 hrs with indicated conditions. Cells were collected from the plates by TrypLE and incubated with PE cy7-conjugated anti-mouse F4/80 antibody to stain for macrophages. After incubation, cells were washed with FACS buffer and resuspended with FACS buffer containing sytox blue and non-colored standard cells (293T cells were used as standard cells). Cells were then subjected to FACS analyses. Remaining target cells were normalized to standard cells (numbers of standard cells were known and equal in each sample) to evaluate the percentage of cells phagocytosed by macrophages during the incubation.

[2] = system: SW620 cells; assay: Phagocytosis assay, human PBMC-derived macrophages with SW620 target cells; type: cell-based; settings: SW620 Control IgG- or B6H12-treated; FIG. 10D
Experimental: The cells were examined by flow cytometry analyses. Remaining target cells were used to evaluate efficacy of phagocytosis, with less remaining target cells representing stronger phagocytosis. […] Error bars represent standard deviation (FIGS. 10A, 10C and 10D).
Human peripheral blood-derived macrophages were generated as previously described.
Phagocytosis assay. FACS-based phagocytosis assays were performed to evaluate phagocytic abilities of macrophages. […] Target cells were added and mixed with macrophages, and incubated at 37° C. for 2 hrs with indicated conditions (antibody/drug treatment). For CD47 blockade, anti-CD47 (B6H12, BD Biosciences) or humanized anti-CD47 (Hu5F9-G4; provided by the CD47 disease team at Stanford University) antibodies were used. Cells were then incubated with PE cy7-conjugated anti-mouse F4/80 antibody to stain macrophages. After incubation, cells were washed with FACS buffer and resuspended with FACS buffer containing sytox blue to distinguish dead cells. Phagocytic index was examined by FACS analyses, and macrophages that phagocytosed target cells were F4/80+ and GFP+. Phagocytic index was calculated with the number of F4/80+GFP+ cells/divided by the number of F4/80+ cells. In each experiment, phagocytic indexes were normalized to the maximal indexes.

[3] = system: calreticulin (CRT); assay: Cell surface exposure of CRT on macrophages (cell surface biotinylation, flow cytometry); type: cell-based, mouse; settings: for cell surface CRT on macrophages, cell surface biotinylation assay: immunoblots, FIG. 3A; for cell surface exposure of CRT on macrophages, flow cytometry: TLR agonist treatment, FIG. 3B, 10B
Experimental: Flow cytometry Analysis. Flow cytometry analyses were performed using a BD LSRFortessa. For staining, 2.5×10^5-10^6 cells were incubated with indicated antibodies (1:50-1:200) in FACS buffer (PBS with 2% fetal bovine serum) on ice for 30 minutes. Cells were then washed with FACS buffer and subjected to FACS analyses. For staining of macrophages, cells were first treated with Fc receptor blockers or a high concentration of isotype IgG control (5-10 times of indicated antibodies) to block non-specific binding of antibodies caused by the interaction of Fc domain and Fc receptors on macrophages.
Cell surface biotinylation. […] Cells were incubated with NHS-SS-Biotin (0.5 mg/ml) for 1 hr in PBS (pH8.0), and then rinsed with quench buffer (20 mM Tris-HCl, 120 mM NaCl, pH7.4), 100 mM Glycine in PBS, and PBS. Cells were lysed in lysis buffer (20 mM Tris-HCl, pH7.4, 150 mM NaCl, 2 mM EDTA, supplemented with 1% Triton X-100, protease inhibitor cocktail and phosphatase inhibitor cocktail). Cell lysate was incubated with neutravidin agarose resin for 4 hr at 4° C., and the resin was washed using lysis buffer. Biotin-labeled proteins were eluted with lysis buffer containing 2% SDS and 100 mM DTT, and subjected to SDS-PAGE and immunoblotting. Intracellular protein GAPDH was used as a negative control to confirm that only cell surface proteins were labeled by NHS-SS-Biotin.

[4] = molecular target: T1, Btk (Mus musculus, UniProt P35991); assay: Immunoblot of Btk phosphorylation in macrophages; type: cell-based; settings: treatment with TLR agonist, FIG. 2B
T1 construct: endogenous in cells; probably mouse bone-marrow-derived macrophages
T1 sequence (P35991 whole entry): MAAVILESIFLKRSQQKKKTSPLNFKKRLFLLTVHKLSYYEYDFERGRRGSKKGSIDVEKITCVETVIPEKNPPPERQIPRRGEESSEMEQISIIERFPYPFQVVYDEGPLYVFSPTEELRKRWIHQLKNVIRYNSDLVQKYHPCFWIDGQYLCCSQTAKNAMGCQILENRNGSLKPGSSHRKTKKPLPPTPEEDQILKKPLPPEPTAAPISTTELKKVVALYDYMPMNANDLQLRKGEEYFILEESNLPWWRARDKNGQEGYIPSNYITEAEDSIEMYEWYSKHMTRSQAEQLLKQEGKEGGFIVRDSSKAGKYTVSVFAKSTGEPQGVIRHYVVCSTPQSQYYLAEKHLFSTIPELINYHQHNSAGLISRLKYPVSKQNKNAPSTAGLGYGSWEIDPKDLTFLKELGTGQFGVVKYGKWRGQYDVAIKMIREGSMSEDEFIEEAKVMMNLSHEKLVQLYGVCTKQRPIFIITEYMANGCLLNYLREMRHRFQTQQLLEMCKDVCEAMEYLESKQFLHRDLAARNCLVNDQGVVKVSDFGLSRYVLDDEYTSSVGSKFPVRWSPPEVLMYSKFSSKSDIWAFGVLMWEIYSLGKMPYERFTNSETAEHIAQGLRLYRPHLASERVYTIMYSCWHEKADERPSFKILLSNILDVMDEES
Excerpt: FIG. 2A-2D. […] Error bars represent standard deviation (FIGS. 2A, 2C and 2D).

[5] = system: HL60, Raji, PC3, MDA-MB-231 cells; assay: Phagocytosis assay, mouse BMDMs with multiple hematopoietic and solid tumor cells; type: cell-based, human; settings: macrophages treated with TLR3, 4 and 7 agonists; FIGS. 6A-C and 7A-D
Excerpt: FIG. 7A-7D. Phagocytosis of HL60, Raji, PC-3, MDA-MB-231 is enhanced by TLR agonists. Phagocytosis assays showing TLR agonists enhanced phagocytosis of multiple human cancer cells, with different hematopoietic (HL60 and Raji) and solid tumor (PC3 and MDA-MB-231) cells (PBS- or Hu5F9-G4-treated) as target cells and BMDMs from NSG (HL60, Raji and PC3) or RAG2^−/−, γc^−/− (MDA-MB-231) mice. HL60: Promyelocytic leukemia; Raji: Burkitt's lymphoma; PC3: Prostate cancer; MDA-MB-231: Breast cancer. Error bars represent standard deviation (FIG. 7A-7D).
as §1

[6] = system: calreticulin (CRT); assay: CRT phosphorylation in J774 cells expressing myc-CRT (immunoprecipitation, immunoblot); type: cell-based, mouse; settings: myc-tagged CRT, FIG. 10E
Experimental: Immunoprecipitation. Calreticulin was immunoprecipitated from J774 cells expressing myc-CRT. J774 cells were plated 12 hrs before immunoprecipitation. Cells were treated with imiquimod (1 ug/ml) at indicated time points, and washed with pre-chilled PBS containing phosphatase inhibitors on ice. Cells were then lysed in lysis buffer (20 mM Tris-HCl, pH7.4, 150 mM NaCl, 2 mM EDTA, supplemented with 1% Triton X-100, protease inhibitor cocktail and phosphatase inhibitor cocktail). Cell lysate was incubated for 1 hr with GammaBind Plus Sepharose for preclearance and 4 hr with anti-myc antibodies at 4° C. GammaBind sepharose was added to cell lysate and incubated for 1 hr at 4° C. Beads were washed with lysis buffer. Proteins were eluted with lysis buffer containing 2% SDS and 100 mM DTT, and subjected to SDS-PAGE and immunoblotting. To detect phosphorylated CRT, the blot was incubated with biotin-labeled pT66 anti-p-Tyrosine antibody and HRP-conjugated streptavidin.

[7] = system: PC3 prostate cancer cells; assay: Flow cytometry of dissociated PC3 tumor specimens from treated NSG mice; type: in vivo, mouse; settings: PC3 tumors in NSG mice; FIG. 8B
Experimental: Tumor engraftment and treatment. PC3 cells (human prostate cancer) were suspended in F-12K medium with 25% matrix matrigel, and injected subcutaneously on the back of 6-10 week NSG mice. Mice were treated with PBS or Hu5F9-G4 antibody by intraperitoneal injection 2 weeks after engraftment, and PBS or TLR agonists (20 μg of Poly (I:C) HMW and 20 μg of LPS) by intratumoral injection 7 weeks after engraftment when tumors reached 100 mm^3.
Tumor dissociation and FACS analyses. Tumor specimens were collected from the mice, minced to pieces smaller than 1 mm in diameter and dissociated in medium 199 with TM enzymes and DNAase at 37° C. until single-cell suspension was achieved. The cells were treated with ACK lysing buffer for lysis of red blood cells, washed twice with HBSS, filtered through 70 μm cell strainer and subjected to flow cytometry analyses. The cells were stained with anti-CD31 antibody, anti-Gr-1 antibody and sytox blue to exclude endothelial cells, neutrophils and dead cells, and with anti-F4/80 antibody for macrophages.

Row | Molecule | cell surface CRT on macrophages, cell surface biotinylation assay [3] | phagocytosis of tumor cells after treatment of macrophages with TLR agonist ([1]; BMDMs from RAG2-/-) | Btk phosphorylation in macrophages [4] | phagocytosis of multiple hematopoietic and solid tumor cells [5] | cell surface exposure of CRT on macrophages, flow cytometry [3] | also measured
1 | C=CC(=O)N1CCC[C@@H](n2nc(-c3ccc(Oc4ccccc4)cc3)c3c(N)ncnc32)C1 [ibrutinib, 1-[(3R)-3-[4-amino-3-(4-phenoxyphenyl)pyrazolo[3,4-d]pyrimidin-1-yl]piperidin-1-yl]prop-2-en-1-one] | decreased |  |  |  |  | basal level phagocytosis of cancer cells (resting macrophages) ([1]; Fc-dependent and -independent, 16 hr coculture, BMDMs from RAG2-/-, γc-/- mice, FIG. 10A): inhibitory effect; phagocytosis induced by TLR agonists, combined with inhibitor ([1]; SW620 (control or CD47KO), BMDMs from RAG2-/-, γc-/- mice, FIG. 2A): significantly attenuated; time to maximal inhibition of phagocytosis on blockade of Btk ([1]; SW620 CD47KO target cells, BMDMs from NSG mice, FIG. 2D): ≤ 1 h; phagocytosis of SW620 cells by human PBMC-derived macrophages [2]: inhibited phagocytosis; imiquimod-induced cell surface expression of CRT on macrophages with ibrutinib ([3]; imiquimod+ibrutinib, flow cytometry, FIG. 10B): reversed
2 | CC(C)Cn1cnc2c(N)nc3ccccc3c21 [imiquimod, Imiquimod] | increased | promoted phagocytosis | stimulated Btk to be phosphorylated | dramatically enhanced | Increased cell surface exposure | duration of Btk-activation for maximal phagocytic ability of macrophages ([1]; SW620 CD47KO target cells, BMDMs from NSG mice, FIG. 2C): 16 h; time of treatment to maximal level of CRT phosphorylation [6]: 30 min; cell surface exposure of CRT on macrophages, flow cytometry ([3]; listed as Imiquimod): increased cell surface expression
3 | lipopolysaccharide [LPS] |  | promoted phagocytosis | stimulated Btk to be phosphorylated | dramatically enhanced | Increased cell surface exposure | phagocytic ability of macrophages ([1]; SW620 (PBS- or Hu5F9-G4-treated), BMDMs from NSG mice, flow cytometry plots, FIG. 6C): strongly enhanced
4 | polyinosinic-polycytidylic acid-high molecular weight [Poly (I:C) HMW] |  | promoted phagocytosis | stimulated Btk to be phosphorylated | dramatically enhanced | Increased cell surface exposure | 
5 | B1 |  |  |  |  |  | phagocytosis of SW620 cells on blockade of CD47 ([1]; BMDMs from RAG2-/-, γc-/- mice, FIG. 1A): induced phagocytosis
6 | B2 |  |  |  |  |  | macrophages (a1+a2) in tumor specimens [7]: 46.26%; macrophages that had phagocytosed tumor cells a2 (GFP+F4/80+), ongoing phagocytosis [7]: 39.3%; tumor cells a4 (GFP+F4/80-) in tumor specimens [7]: 40%
